# Laboratory results: patent US11795180B2, “Formulation of a pan-JAK inhibitor” (THERAVANCE BIOPHARMA R&D IP, LLC, priority 2020, dated 2023)
# Key:
# immunosuppression = test: Immunosuppression model (systemic functional activity); type: in vivo; settings: mice, same dose required to demonstrate efficacy in the oxazolone model
# From the text: (§1) Oxazolone-induced colitis is an experimental model that has a histological resemblance to human ulcerative colitis.
# JAK1 = JAK1 (Homo sapiens, UniProt P23458); settings: cited from earlier work
# JAK1, sequence (P23458 whole entry): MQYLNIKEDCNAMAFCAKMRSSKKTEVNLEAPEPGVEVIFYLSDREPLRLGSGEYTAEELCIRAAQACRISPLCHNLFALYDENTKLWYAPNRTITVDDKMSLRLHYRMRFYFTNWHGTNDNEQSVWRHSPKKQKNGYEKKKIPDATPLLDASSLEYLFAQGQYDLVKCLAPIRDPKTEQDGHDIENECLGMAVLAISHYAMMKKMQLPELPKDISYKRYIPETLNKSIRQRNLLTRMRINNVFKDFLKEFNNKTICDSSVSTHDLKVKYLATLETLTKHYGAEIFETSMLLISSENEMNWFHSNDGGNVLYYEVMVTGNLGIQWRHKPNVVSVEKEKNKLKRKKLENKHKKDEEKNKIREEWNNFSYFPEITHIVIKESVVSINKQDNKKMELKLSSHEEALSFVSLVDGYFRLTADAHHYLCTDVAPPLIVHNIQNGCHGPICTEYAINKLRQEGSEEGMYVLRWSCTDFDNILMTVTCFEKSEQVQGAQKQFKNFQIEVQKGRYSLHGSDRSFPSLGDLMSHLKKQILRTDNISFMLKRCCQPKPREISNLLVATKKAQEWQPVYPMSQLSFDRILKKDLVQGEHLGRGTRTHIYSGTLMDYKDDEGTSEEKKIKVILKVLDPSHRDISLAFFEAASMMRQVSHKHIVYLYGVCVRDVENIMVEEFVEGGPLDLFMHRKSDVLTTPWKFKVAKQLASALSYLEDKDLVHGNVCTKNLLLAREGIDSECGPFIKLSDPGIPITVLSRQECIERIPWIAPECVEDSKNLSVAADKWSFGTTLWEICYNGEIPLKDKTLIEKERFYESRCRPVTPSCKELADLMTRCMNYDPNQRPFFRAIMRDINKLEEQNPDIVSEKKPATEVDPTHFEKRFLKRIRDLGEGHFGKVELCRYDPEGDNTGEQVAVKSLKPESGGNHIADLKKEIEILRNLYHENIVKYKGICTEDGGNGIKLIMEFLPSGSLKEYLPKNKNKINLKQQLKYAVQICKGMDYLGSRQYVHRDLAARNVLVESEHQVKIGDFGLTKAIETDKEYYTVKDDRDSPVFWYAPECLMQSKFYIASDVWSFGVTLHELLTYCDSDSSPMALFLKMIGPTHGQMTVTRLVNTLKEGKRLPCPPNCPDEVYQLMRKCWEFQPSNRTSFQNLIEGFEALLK
# TYK2 = TYK2 (Homo sapiens, UniProt P29597); settings: cited from earlier work
# TYK2, sequence (P29597 whole entry): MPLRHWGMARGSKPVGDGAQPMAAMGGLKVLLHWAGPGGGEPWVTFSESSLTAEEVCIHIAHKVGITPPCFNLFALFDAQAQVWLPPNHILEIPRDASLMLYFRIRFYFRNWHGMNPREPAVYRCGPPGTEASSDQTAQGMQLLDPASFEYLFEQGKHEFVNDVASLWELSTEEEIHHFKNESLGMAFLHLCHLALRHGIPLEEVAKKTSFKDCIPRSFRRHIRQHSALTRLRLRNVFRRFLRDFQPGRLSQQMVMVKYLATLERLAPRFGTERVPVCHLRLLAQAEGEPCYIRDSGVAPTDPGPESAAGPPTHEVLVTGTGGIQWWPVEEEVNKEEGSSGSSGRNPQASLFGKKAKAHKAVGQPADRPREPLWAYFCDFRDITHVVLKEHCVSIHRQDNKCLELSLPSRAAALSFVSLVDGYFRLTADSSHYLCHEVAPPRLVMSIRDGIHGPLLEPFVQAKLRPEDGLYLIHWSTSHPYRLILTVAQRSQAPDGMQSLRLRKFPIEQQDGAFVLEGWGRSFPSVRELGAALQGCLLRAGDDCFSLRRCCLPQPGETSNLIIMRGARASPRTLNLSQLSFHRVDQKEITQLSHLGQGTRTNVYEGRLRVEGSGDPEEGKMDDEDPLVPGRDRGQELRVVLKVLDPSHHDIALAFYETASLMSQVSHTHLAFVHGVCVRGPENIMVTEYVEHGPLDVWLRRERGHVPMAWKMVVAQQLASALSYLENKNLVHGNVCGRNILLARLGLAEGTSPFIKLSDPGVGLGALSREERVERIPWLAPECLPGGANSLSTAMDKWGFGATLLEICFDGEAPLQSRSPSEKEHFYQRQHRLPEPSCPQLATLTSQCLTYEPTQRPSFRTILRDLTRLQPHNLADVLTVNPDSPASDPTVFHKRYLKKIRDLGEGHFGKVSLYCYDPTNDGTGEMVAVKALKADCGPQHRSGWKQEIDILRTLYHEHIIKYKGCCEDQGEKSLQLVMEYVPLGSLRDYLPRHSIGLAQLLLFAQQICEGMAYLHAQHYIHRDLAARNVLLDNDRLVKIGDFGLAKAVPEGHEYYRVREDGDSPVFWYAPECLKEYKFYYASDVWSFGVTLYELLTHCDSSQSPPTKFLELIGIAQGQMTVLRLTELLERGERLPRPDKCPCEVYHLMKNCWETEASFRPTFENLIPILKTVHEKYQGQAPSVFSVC
# [1] = test system: oxazolone-induced colitis; test: Oxazolone-induced colitis model; type: in vivo; settings: mice
# From the text: as §1
# [2] = cannulated rats; cited from earlier work
# JAK2 = JAK2 (Homo sapiens, UniProt O60674); settings: cited from earlier work
# JAK2, sequence (O60674 whole entry): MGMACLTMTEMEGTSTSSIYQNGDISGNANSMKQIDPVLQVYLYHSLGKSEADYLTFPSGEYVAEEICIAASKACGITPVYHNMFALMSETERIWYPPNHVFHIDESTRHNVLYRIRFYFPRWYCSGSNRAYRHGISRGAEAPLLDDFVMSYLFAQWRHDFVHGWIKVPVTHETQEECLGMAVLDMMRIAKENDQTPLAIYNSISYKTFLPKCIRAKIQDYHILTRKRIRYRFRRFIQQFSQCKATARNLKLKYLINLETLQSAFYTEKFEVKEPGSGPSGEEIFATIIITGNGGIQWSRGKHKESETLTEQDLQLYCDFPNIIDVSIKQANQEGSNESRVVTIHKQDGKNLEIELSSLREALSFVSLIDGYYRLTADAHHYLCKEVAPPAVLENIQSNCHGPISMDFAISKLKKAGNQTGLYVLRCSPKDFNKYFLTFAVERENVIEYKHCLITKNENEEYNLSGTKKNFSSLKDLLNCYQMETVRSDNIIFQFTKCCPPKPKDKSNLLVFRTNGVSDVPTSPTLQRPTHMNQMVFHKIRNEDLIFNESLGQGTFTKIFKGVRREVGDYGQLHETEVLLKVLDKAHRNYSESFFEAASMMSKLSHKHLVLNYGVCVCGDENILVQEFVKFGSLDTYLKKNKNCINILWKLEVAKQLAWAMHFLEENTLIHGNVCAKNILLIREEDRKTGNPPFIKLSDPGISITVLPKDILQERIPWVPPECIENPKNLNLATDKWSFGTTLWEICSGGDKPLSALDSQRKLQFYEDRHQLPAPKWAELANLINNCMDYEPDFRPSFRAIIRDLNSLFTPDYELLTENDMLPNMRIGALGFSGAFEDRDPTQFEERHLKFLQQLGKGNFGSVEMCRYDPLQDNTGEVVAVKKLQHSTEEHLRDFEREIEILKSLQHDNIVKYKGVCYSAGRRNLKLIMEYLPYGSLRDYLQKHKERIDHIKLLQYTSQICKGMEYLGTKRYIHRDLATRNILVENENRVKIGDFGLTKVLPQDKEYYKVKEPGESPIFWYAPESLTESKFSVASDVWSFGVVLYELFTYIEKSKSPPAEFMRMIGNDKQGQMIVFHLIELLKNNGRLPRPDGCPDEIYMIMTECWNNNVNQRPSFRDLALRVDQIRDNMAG
# [3] = Dissolution profiles of tablets with 3% magnesium stearate (blending process, particle size); type: physicochemical; settings: tablet with 3% magnesium stearate, Compound I particles blended with a filler, no pre-blending with hydrophobic colloidal silicon dioxide
# Description: […] The particle size of Compound I was determined by static image analysis.
# During manufacturing of certain tablets comprising 0.5-1% magnesium stearate, film formation on tablet punches was observed. The film formed after compression of a few tablets. After extensive investigation, the problem was resolved by increasing the magnesium stearate content in the composition up to 3%. […]
# Using this manufacturing procedure, consistently fast dissolution profiles were obtained for different particle sizes of Compound I without leading to the unwanted film formation on tablet punches. Dissolution profiles of tablets manufactured according to this procedure and containing various particle sizes of Compound I are depicted in FIG. 9.
# [4] = rat; cited from earlier work
# JAK3 = biological target: T1, JAK3 (Homo sapiens, UniProt P52333); settings: cited from earlier work
# T1 sequence (P52333 1-1124): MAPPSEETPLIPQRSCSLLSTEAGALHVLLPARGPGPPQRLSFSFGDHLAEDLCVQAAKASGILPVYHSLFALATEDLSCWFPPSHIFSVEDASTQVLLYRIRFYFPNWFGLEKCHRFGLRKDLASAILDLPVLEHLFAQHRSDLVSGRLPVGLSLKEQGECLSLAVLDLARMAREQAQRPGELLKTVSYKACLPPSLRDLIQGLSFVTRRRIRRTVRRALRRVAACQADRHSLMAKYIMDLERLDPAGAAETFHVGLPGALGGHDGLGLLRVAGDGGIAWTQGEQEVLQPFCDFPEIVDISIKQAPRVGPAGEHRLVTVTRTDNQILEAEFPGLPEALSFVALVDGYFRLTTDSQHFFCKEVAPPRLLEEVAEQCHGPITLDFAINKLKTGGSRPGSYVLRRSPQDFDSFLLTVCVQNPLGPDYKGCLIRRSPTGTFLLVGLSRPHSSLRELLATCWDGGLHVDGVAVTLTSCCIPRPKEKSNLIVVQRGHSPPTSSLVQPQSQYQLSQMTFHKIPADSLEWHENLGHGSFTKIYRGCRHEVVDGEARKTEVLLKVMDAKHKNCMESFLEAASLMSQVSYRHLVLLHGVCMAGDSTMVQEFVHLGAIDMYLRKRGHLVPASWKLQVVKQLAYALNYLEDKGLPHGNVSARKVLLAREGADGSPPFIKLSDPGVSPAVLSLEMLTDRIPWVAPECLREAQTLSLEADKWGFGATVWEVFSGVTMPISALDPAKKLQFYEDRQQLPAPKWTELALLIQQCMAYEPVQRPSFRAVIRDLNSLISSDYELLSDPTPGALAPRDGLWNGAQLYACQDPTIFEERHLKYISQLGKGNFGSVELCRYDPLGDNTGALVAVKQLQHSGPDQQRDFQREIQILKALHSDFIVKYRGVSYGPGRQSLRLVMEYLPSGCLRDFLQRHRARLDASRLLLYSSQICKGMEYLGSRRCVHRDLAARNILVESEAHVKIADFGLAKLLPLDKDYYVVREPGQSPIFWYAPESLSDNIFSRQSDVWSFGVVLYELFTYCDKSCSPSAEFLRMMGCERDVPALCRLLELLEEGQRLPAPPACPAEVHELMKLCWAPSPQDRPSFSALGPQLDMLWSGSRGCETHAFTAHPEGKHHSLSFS
# [5] = oral dosing, preclinical species; cited from earlier work
# [6] = Drug concentration in stool samples of healthy human subjects; type: in vivo
# From the text: As described previously in U.S. Pat. No. 9,725,470, the absorption and distribution of Compound I has been extensively profiled in preclinical assays. […] In addition, Compound I is designed to have its effect at the site of action in the gastrointestinal tract.
compound,measurement,setting,value
"Cc1cc(Nc2cc3ncccc3c(N[C@@H]3C[C@H]4CC[C@@H](C3)N4CCC#N)n2)n[nH]1 [Compound I, 3-((1R,3s,5S)-3-((7-((5-methyl-1H-pyrazol-3-yl)amino)-1,6-naphthyridin-5-yl)amino)-8-azabicyclo[3.2.1]octan-8-yl)propanenitrile]",Effect of immunosuppression,immunosuppression,minimal effect of immunosuppression
same,Inhibition of JAK1,JAK1,potent inhibitor
same,Inhibition of TYK2,TYK2,potent inhibitor
same,Activity in the oxazolone-induced colitis model,[1],demonstrated activity
same,Absorption into plasma at the portal vein,[2],low absorption
same,Inhibition of JAK2,JAK2,potent inhibitor
same,Dissolution rate (FIG. 8),[3],reduced dissolution rate
same,Ratio of exposure in the colon to exposure in plasma,[4],greater than 450
same,Inhibition of JAK3,JAK3,potent inhibitor
same,Exposure throughout the gastrointestinal tract compared with exposure in plasma,[5],significantly higher exposure
same,Drug concentration in stool samples,[6],high drug concentration
